Assay results: ChEMBL document CHEMBL6127131, “Design, Synthesis, and Biological Evaluation of New Selective PDE4 Inhibitors for Topical Treatment of Psoriasis” (J Med Chem, 2024)

Key:
[1] = target: T1, 3',5'-cyclic-AMP phosphodiesterase 4D (Homo sapiens, UniProt Q08499); assay: Inhibition of recombinant full-length PDE4D2 (unknown origin) at 1 uM using FAM-cAMP as substrate preincubated for 15 mins followed by substrate addition and measured after 30 mins by plate reader assay relative to control; settings: time 45.0 min
RAW264.7 [2] = assay: Anti-inflammatory activity against LPS induced mouse RAW264.7 cells assessed as reduction in TNFalpha secretion at 10 uM incubated for 24 hrs by ELISA; assay type: functional
[3] = target: T1, 3',5'-cyclic-AMP phosphodiesterase 4D; assay: Inhibition of recombinant full-length PDE4D2 (unknown origin) using FAM-cAMP as substrate preincubated for 15 mins followed by substrate addition and measured after 30 mins by plate reader assay
HaCaT = assay: Anti-inflammatory activity against M5 induced human HaCaT cells assessed as reduction in TNFalpha secretion incubated for 24 hrs by ELISA; assay type: functional, cell-based
RAW264.7 [4] = assay: Anti-inflammatory activity against LPS induced mouse RAW264.7 cells assessed as reduction in IL-6 secretion incubated for 24 hrs by ELISA; assay type: functional, cell-based; settings: RAW264.7, 24 h
[5] = Cytotoxicity against human HaCaT cells incubated for 24 hrs by CCK8 assay; assay type: toxicity, cell-based
[6] = Cytotoxicity against mouse RAW264.7 cells incubated for 24 hrs by CCK8 assay; assay type: toxicity, cell-based
RAW264.7 [7] = assay: Anti-inflammatory activity against LPS induced mouse RAW264.7 cells assessed as reduction in TNFalpha secretion incubated for 24 hrs by ELISA; assay type: functional, cell-based; settings: RAW264.7, 24 h

T1 sequence (Q08499 whole entry): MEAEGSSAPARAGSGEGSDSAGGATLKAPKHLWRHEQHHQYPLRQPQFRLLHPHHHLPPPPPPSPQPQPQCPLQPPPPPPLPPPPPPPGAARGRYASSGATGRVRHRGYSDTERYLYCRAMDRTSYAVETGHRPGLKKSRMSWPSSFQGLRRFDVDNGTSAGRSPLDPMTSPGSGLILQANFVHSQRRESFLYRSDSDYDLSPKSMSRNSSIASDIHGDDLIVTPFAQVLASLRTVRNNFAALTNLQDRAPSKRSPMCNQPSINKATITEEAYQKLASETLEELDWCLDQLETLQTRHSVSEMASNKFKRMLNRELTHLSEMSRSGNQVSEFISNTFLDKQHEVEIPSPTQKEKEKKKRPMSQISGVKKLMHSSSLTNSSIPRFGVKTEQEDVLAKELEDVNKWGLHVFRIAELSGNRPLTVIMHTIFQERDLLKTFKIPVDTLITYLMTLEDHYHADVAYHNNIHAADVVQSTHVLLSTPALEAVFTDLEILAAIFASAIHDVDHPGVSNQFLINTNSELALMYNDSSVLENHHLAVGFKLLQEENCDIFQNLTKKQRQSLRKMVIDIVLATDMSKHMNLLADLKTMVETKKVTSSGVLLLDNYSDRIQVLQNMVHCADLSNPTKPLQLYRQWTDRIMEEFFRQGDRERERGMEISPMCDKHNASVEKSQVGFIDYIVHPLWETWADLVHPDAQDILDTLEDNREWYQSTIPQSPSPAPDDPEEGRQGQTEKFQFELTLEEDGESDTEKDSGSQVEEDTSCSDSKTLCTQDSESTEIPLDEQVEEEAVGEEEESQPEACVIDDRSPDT

Row | Structure (SMILES) | inhibition [1] [%] | inhibition at 10 µM (RAW264.7 [2]) [%] | also measured
1 | Cn1cc(NC(=O)c2cnn3c(-c4ccc(OC(F)F)c(OCC5CC5)c4)ccnc23)cn1 | < 73.1 | – | –
2 | O=C(Nc1ccc2cc[nH]c2c1)c1cnn2c(-c3ccc(OC(F)F)c(OCC4CC4)c3)ccnc12 | < 73.1 | – | –
3 | O=C(NCc1c(F)cc(F)cc1F)c1cnn2c(-c3ccc(OC(F)F)c(OCC4CC4)c3)ccnc12 | < 73.1 | – | –
4 | O=C(NC1CC1)c1cnn2c(-c3ccc(OC(F)F)c(OCC4CC4)c3)ccnc12 | < 73.1 | – | –
5 | CCC(CC)NC(=O)c1cnn2c(-c3ccc(OC(F)F)c(OCC4CC4)c3)ccnc12 | < 73.1 | – | –
6 | O=C(NC1CCCCC1)c1cnn2c(-c3ccc(OC(F)F)c(OCC4CC4)c3)ccnc12 | < 73.1 | – | –
7 | O=C(NCc1c(F)cc(F)cc1F)c1csc(-c2ccc(OC(F)F)c(OCC3CC3)c2)n1 | – | 34 | IC50 [3]: 25.7 nM
8 | O=C(NCc1ccccc1)c1cc2nccc(-c3ccc(OC(F)F)c(OCC4CC4)c3)n2n1 | – | 19.6 | IC50 [3]: 546 nM
9 | O=C(NCc1ncccn1)c1cc2nccc(-c3ccc(OC(F)F)c(OCC4CC4)c3)n2n1 | 70.7 | 25.1 | –
10 | O=C(Nc1nccs1)c1cnn2c(-c3ccc(OC(F)F)c(OCC4CC4)c3)ccnc12 | < 73.1 | – | –
11 | O=C(NCc1c(F)cccc1F)c1cc2nccc(-c3ccc(OC(F)F)c(OCC4CC4)c3)n2n1 | 41.9 | 27.9 | –
12 | O=C(NCc1cc(F)ccc1F)c1cnn2c(-c3ccc(OC(F)F)c(OCC4CC4)c3)ccnc12 | < 73.1 | – | –
13 | O=C(NCC1CCOCC1)c1cc2nccc(-c3ccc(OC(F)F)c(OCC4CC4)c3)n2n1 | 62.7 | 38.6 | –
14 | O=C(NCc1ccc(F)cc1F)c1cc2nccc(-c3ccc(OC(F)F)c(OCC4CC4)c3)n2n1 | – | 13.6 | IC50 [3]: 558 nM
15 | COc1ccc(CNC(=O)c2cnn3c(-c4ccc(OC(F)F)c(OCC5CC5)c4)ccnc23)cn1 | < 73.1 | – | –
16 | CC(C)(C)CNC(=O)c1cnn2c(-c3ccc(OC(F)F)c(OCC4CC4)c3)ccnc12 | < 73.1 | – | –
17 | O=C(NCc1c(F)cccc1F)c1cnn2c(-c3ccc(OC(F)F)c(OCC4CC4)c3)ccnc12 | < 73.1 | – | –
18 | O=C(Nc1nccs1)c1cc2nccc(-c3ccc(OC(F)F)c(OCC4CC4)c3)n2n1 | 86.1 | 25.8 | –

Row | Structure (SMILES) | inhibition [1] [%] | inhibition at 10 µM (RAW264.7 [2]) [%] | also measured
19 | O=C(Nc1ccncc1)c1cnn2c(-c3ccc(OC(F)F)c(OCC4CC4)c3)ccnc12 | < 73.1 | – | –
20 | O=C(Nc1ccncc1)c1csc(-c2ccc(OC(F)F)c(OCC3CC3)c2)n1 | – | 25.6 | IC50 [3]: 77.2 nM
21 | O=C(NCc1cc(F)ccc1F)c1cc2nccc(-c3ccc(OC(F)F)c(OCC4CC4)c3)n2n1 | 42.6 | 16.3 | –
22 | O=C(NCc1cccnc1)c1cnn2c(-c3ccc(OC(F)F)c(OCC4CC4)c3)ccnc12 | < 73.1 | – | –
23 | O=C(NCc1c(F)cc(F)cc1F)c1cc2nccc(-c3ccc(OC(F)F)c(OCC4CC4)c3)n2n1 | 38.4 | 23.3 | –
24 | Cn1cc(NC(=O)c2cc3nccc(-c4ccc(OC(F)F)c(OCC5CC5)c4)n3n2)cn1 | 46.7 | 15.4 | –
25 | O=C(NCc1cccc(F)c1F)c1csc(-c2ccc(OC(F)F)c(OCC3CC3)c2)n1 | – | 24.8 | IC50 [3]: 25 nM
26 | O=C(NCc1cccc(F)c1F)c1cc2nccc(-c3ccc(OC(F)F)c(OCC4CC4)c3)n2n1 | 64.6 | 13.7 | –
27 | O=C(Nc1ccccc1)c1cc2nccc(-c3ccc(OC(F)F)c(OCC4CC4)c3)n2n1 | 89.2 | 16.5 | –
28 | O=C(NCc1cccc(F)c1F)c1cnn2c(-c3ccc(OC(F)F)c(OCC4CC4)c3)ccnc12 | < 73.1 | – | –
29 | O=C(Nc1ccccc1)c1cnn2c(-c3ccc(OC(F)F)c(OCC4CC4)c3)ccnc12 | < 73.1 | – | –
30 | O=C(NCc1c(F)cccc1F)c1csc(-c2ccc(OC(F)F)c(OCC3CC3)c2)n1 | – | – | IC50 (HaCaT): 22.6 µM; IC50 (RAW264.7 [4]): 57 µM; CC50 at 24 h [5]: > 50 µM; IC50 [3]: 9.36 nM; CC50 at 24 h [6]: > 50 µM; IC50 (RAW264.7 [7]): 48.4 µM
31 | CC(C)CNC(=O)c1cnn2c(-c3ccc(OC(F)F)c(OCC4CC4)c3)ccnc12 | < 73.1 | – | –
32 | O=C(NCc1ccc(F)cc1F)c1cnn2c(-c3ccc(OC(F)F)c(OCC4CC4)c3)ccnc12 | < 73.1 | – | –
33 | O=C(NCc1ccccc1)c1csc(-c2ccc(OC(F)F)c(OCC3CC3)c2)n1 | – | 29 | IC50 [3]: 25.9 nM
34 | O=C(NCC1CCOCC1)c1cnn2c(-c3ccc(OC(F)F)c(OCC4CC4)c3)ccnc12 | < 73.1 | – | –
35 | O=C(Nc1ccc2ncsc2c1)c1cnn2c(-c3ccc(OC(F)F)c(OCC4CC4)c3)ccnc12 | < 73.1 | – | –

Now from value to molecule, other results behind:

Row | inhibition [1] [%] | Structure (SMILES) | inhibition at 10 µM (RAW264.7 [2]) [%] | also measured
36 | 64.8 | O=C(Nc1nccs1)c1csc(-c2ccc(OC(F)F)c(OCC3CC3)c2)n1 | 14.6 | –
37 | 49.3 | O=C(NCc1cccnc1)c1cc2nccc(-c3ccc(OC(F)F)c(OCC4CC4)c3)n2n1 | 6.6 | –
38 | 75.3 | O=C(Nc1nc2ccccc2s1)c1csc(-c2ccc(OC(F)F)c(OCC3CC3)c2)n1 | 21.7 | –
39 | 79.1 | O=C(NCc1ccc(F)cc1F)c1csc(-c2ccc(OC(F)F)c(OCC3CC3)c2)n1 | 17.6 | –
40 | < 73.1 | O=C(NCc1ccccc1)c1cnn2c(-c3ccc(OC(F)F)c(OCC4CC4)c3)ccnc12 | – | –
41 | < 73.1 | O=C(NCc1ccc2ccccc2c1)c1cnn2c(-c3ccc(OC(F)F)c(OCC4CC4)c3)ccnc12 | – | –
42 | 78.5 | O=C(O)c1csc(-c2ccc(OC(F)F)c(OCC3CC3)c2)n1 | 22.9 | –
43 | 72.4 | O=C(Nc1ccccc1)c1csc(-c2ccc(OC(F)F)c(OCC3CC3)c2)n1 | 26.5 | –
44 | 38.3 | O=C(NCc1ccc2ccccc2c1)c1cc2nccc(-c3ccc(OC(F)F)c(OCC4CC4)c3)n2n1 | 12.4 | –
45 | 78 | O=C(NCc1ccc2ccccc2c1)c1csc(-c2ccc(OC(F)F)c(OCC3CC3)c2)n1 | 14 | –
